Measured values taken from patent US20140004209A1, “AUTOPHAGY INDUCER AND INHIBITOR COMBINATION THERAPY FOR THE TREATMENT OF NEOPLASMS” (GENENTECH, INC., priority 2010, published 2014).
“Also recorded” adds a separate entry of the source. Where a SMILES comes first, the peptide text is derived from it. [ ]: non-standard residue; d: D form. The star is where a group is joined. Sta = CC(C)C[C@H](N)[C@@H](O)CC(=O)O; Isovaleryl = CC(C)CC(=O)*; Nle = CCCC[C@H](N)C(=O)O; Cbz = O=C(OCc1ccccc1)*; CH2F = FC*

Key:
[1] = Autophagic vacuole accumulation by side scatter (SSC) in a flow cytometer; format: cell-based
Source text: Inhibitors include 3-phenyl-2-(4-((4-(5-(pyridin-2-yl)-1H-1,2,4-triazol-3-yl)piperidin-1-yl)methyl)phenyl)-1,6-naphthyridin-5(6H)-one (II-3), benzyl 2-(4-(3-ethylureido)phenyl)-4-(1,4-oxazepan-4-yl)-5H-pyrrolo[3,4-d]pyrimidine-6(7H)-carboxylate (III-1); 1-ethyl-3-(4-(4-morpholino-7-(pyrimidin-2-yl)-5,6,7,8-tetrahydropyrido[3,4-d]pyrimidin-2-yl)phenyl)urea (III-2), (R)-1-(44(2-(2-aminopyrimidin-5-yl)-7-methyl-4-morpholinothieno[3,2-d]pyrimidin-6-yl)methyl)piperazin-1-yl)-2-hydroxypropan-1-one (III-3), 4-(2-(1H-indazol-4-yl)-6-((4-(methylsulfonyl)piperazin-1-yl)methyl)thieno[3,2-d]pyrimidin-4-yl)morpholine (III-6), (S)—N-(4-(benzo[d][1,3]dioxol-5-yl)thiazol-2-yl)-N-(3-(2-formylpiperidin-1-yl)propyl)thiophene-2-carboxamide (IV-2) and Rapamycin.
FIG. 14 depicts CQ (10 μM) increases the number and size of autophagic vacuoles when combined with the various mTOR, PI3K, and Akt inhibitors.

PC3 cells [2] = assay: PC3 cell viability and cell death (PI exclusion, annexin V, caspase-3/7); format: cell-based, human
Procedure: Cell viability and cell cycle analysis. Cell number and viability was measured using trypan blue exclusion assay using a Vi-Cell Analyzer (Beckman Coulter), or labeled with 1 μg/ml PI in PBS/1% BSA followed by cytofluorometric analysis with a fluorescence-activated cell sorter (FACS) (Becton Dickinson). FITC-conjugated Annexin V was used for the assessment of phosphatidylserine exposure by FACS analysis. Caspase activation was analyzed using a Caspase-Glo 3/7 Assay kit (Promega). For cell cycle analysis, cells were fixed with drop-wise addition of chilled 70% ethanol, washed with PBS and resuspended in staining solution containing 50 μg/ml PI and 60 units of RNAse A. DNA content was analyzed by flow cytometry using the FlowJo and ModFit software (Becton Dickinson).

PC3 cells [3] = assay: Autophagy markers in PC3 cells (EM AVs, GFP-LC3, LC3-II/LC3-I, MDC, AO); format: cell-based, human
Procedure: Western blot analysis, immunofluorescence, 1HC and TUNEL assay: For Western blot analysis, total protein lysates were subjected to SDS-PAGE and transferred to nitrocellulose. […] Detection and quantification were performed using an Odyssey infrared scanner (LICOR) using the manufacturer's software. For immunofluorescence staining, cells were fixed in 3% paraformaldehyde and permeabilized with 0.01% digitonin in PBS, followed by a rabbit polyclonal anti-LC3 (Abgent) primary antibody detected with a cy3-conjugated anti-rabbit secondary antibody (Jackson Immunoresearch). For IHC, formalin-fixed, paraffin-embedded specimens were collected. 5-μm-thick paraffin-embedded sections were stained using an anti-Ki-67 (MIB-1, DakoCytomation) antibody with the Dako ARK kit (Dako Corporation). Tissues were counterstained with haematoxylin, dehydrated, and mounted. In all cases, antigen retrieval was performed with the Dako Target Retrieval Kit as per manufacturer's instructions. For TUNEL assay, formalin-fixed, paraffin-embedded sections were stained using an in situ cell death detection kit (POD; Roche Diagnostic) according to the manufacturer's instructions.
Ultrathin sections were stained with uranyl acetate and lead citrate. Numbers of AV were counted on systematically sampled cytoplasmic areas of 4.5 μm^2 (n≧64 per condition). The percent AV area was measured by means of a square mesh grid laid over ≧5 sets of systematically sampled micrographs with each set covering a cytoplasmic area ≧80 μm^2. The average percent of apoptotic nuclei in tumor tissues was calculated from the number of apoptotic nuclei in 3 to 4 sets of 100 systematically counted tumor cell nuclei.
Multispectral imaging flow cytometry: Cells treated with various agents were stained with Acridine Orange and analyzed by the ImageStream system (Amnis Corporation, Seattle, Wash.) using the IDEAS image analysis program. The DNA AOGreen image and the vacuolar AO Red image were first compensated into separate channels, and then the percentage of apoptotic/anucleate cells (based on AO nuclear morphology and intensity) and vacuolated cells (AO Red+) were quantified. […] AORed Intensity is plotted on the second histogram with an arbitrary gate (R5) drawn to include events with the brightest AO Red intensity.

PC3 cells [4] = assay: Mitochondrial superoxide (MitoSOX red) and cellular ROS in PC3 cells; format: cell-based, human
Procedure: (B) PC3 cells treated as in A were stained with the Image-iT LIVE green ROS Detection kit and examined by fluorescence microscopy at 24 h. […] (C) Quantification of MitoSOX red and ROS green fluorescence intensities by flow cytometry at 24 h. Cells were treated as in A and B. Error bars represent SEM (n=3).
Because mitochondria are the primary intracellular source of superoxide (O2^−) generation, we analyzed O2^− production using MitoSOX red, an O2^− indicator that accumulates in the mitochondria as a function of membrane potential and fluoresces upon oxidation and subsequent binding to DNA.

PC3 cells [5] = assay: Microarray analysis of autophagy gene expression in PC3 cells; format: cell-based, human; conditions: 1 or 5 μM for 6 or 24 hours, normalized to DMSO
Procedure: PC3 cells were induced to express shRNA to indicated Akt isoforms for 72 hours by Doxycycline, RNA was extracted from both Dox treated (Dox+) or untreated control (Dox−) cells. Microarray analysis was carried out using Affymetrix chips. Ratios of the expression levels of each autophagy gene from Dox+ and Dox− samples are shown. Data are mean values from 3 independent experiments.
RNA was extracted from the cells. Microarray analysis was carried out using Affymetrix chips. Expression levels of each autophagy gene are normalized to the DMSO controls. Data are mean values from 3 independent experiments.

Akt = assay: Immunoblot of Akt and S6 phosphorylation in PC3 cells; format: cell-based, human; conditions: 5 mM NAC
Source text: Western blot analysis, immunofluorescence, 1HC and TUNEL assay: For Western blot analysis, total protein lysates were subjected to SDS-PAGE and transferred to nitrocellulose. Antibodies used were: anti-Akt1, anti-Akt2, anti-Akt3, anti-total-Akt, anti-p-Akt (Ser473), anti-p-Akt (Thr308), anti-p-S6 (Ser235/236), anti-PARP and anti-cleaved caspase-3 (Cell Signaling Technology); anti-p-PRAS40 (Invitrogen); anti-p27^Kip1 (Santa Cruz Biotechnology); anti-LC3 (Novus); anti-LAMP2 and anti-Cathepsin D (BD Biosciences); and anti-GAPDH (Advanced Immunochemical Inc.). Primary antibodies were detected using IR Dye 800-conjugated (Rockland) and Alexa-Fluoro 680-conjugated (Molecular Probes) species-selective secondary antibodies. Detection and quantification were performed using an Odyssey infrared scanner (LICOR) using the manufacturer's software. For immunofluorescence staining, cells were fixed in 3% paraformaldehyde and permeabilized with 0.01% digitonin in PBS, followed by a rabbit polyclonal anti-LC3 (Abgent) primary antibody detected with a cy3-conjugated anti-rabbit secondary antibody (Jackson Immunoresearch). For IHC, formalin-fixed, paraffin-embedded specimens were collected. 5-μm-thick paraffin-embedded sections were stained using an anti-Ki-67 (MIB-1, DakoCytomation) antibody with the Dako ARK kit (Dako Corporation). Tissues were counterstained with haematoxylin, dehydrated, and mounted. In all cases, antigen retrieval was performed with the Dako Target Retrieval Kit as per manufacturer's instructions. For TUNEL assay, formalin-fixed, paraffin-embedded sections were stained using an in situ cell death detection kit (POD; Roche Diagnostic) according to the manufacturer's instructions.

Compound	autophagic vacuole accumulation (SSC), inhibitor alone [1]	rescue of cell death induced by II-4 (Akti) and CQ (PC3 cells [2])	further results
O=C[C@@H]1CCCCN1CCCN(C(=O)c1cccs1)c1nc(-c2ccc3c(c2)OCO3)cs1 [IV-2, (S)—N-(4-(benzo[d][1,3]dioxol-5-yl)thiazol-2-yl)-N-(3-(2-formylpiperidin-1-yl)propyl)thiophene-2-carboxamide]	induce increased autophagic vacuole accumulation	–	–
CC(NC(=O)[C@H](Cc1ccccc1)NC(=O)OCc1ccccc1)C(=O)CF (stereo partly shown) [zFA.fmk]	–	Neither of the broad-spectrum cysteine protease inhibitors zFA.fmk and N-Acetyl-Leu-Leu-Nle-CHO nor a more specific cathepsin B inhibitor CA-074-Me showed significant rescue of cell death	–
CO/C1=C\C(C)=C\[C@@H](C)[C@@H](O)[C@@H](C)C/C(C)=C/C=C/[C@H](OC)[C@@H]([C@@H](C)[C@@H](O)[C@H](C)[C@@]2(O)C[C@@H](O)[C@H](C)[C@@H](C(C)C)O2)OC1=O [Ba, bafilomycin A1]	–	–	cell death in combination with shAkt123 (PC3 cells [2]; Dox, 10 μM CQ or […] Ba, 0.5% or 0% FBS): promoted cell death in combination with shAkt 123
Cn1cnc(N)c2ncnc1-2 [3-MA, 3-methyladenine]	–	–	effect of 3-MA on LC3-II to -I ratios and MDC+ vacuoles in III-5 and CQ treated cells (PC3 cells [3]; 3-MA pretreatment): suppressed this effect; also recorded: reduced both LC3-II to -I ratios and the accumulation of MDC^+ vacuoles; effect of 3-MA pretreatment on cell death promoted by CQ or Ba in shAkt expressing cells (PC3 cells [2]; 1 mM 3-MA): delayed this effect; also recorded: suppressed the cell death-promoting effect of either CQ or Ba; effect of 3-MA on rate of cell death in III-5 and CQ treated cells (PC3 cells [2]; 3-MA pretreatment): slowed down the rate of cell death; effect of 3-MA pretreatment on ROS levels (PC3 cells [4]): reduced ROS signals generated by CQ, Akti and Akti+CQ; also recorded: reduced ROS levels induced by II-4
CCCNC(=O)[C@H]1O[C@@H]1C(=O)N[C@H](C(=O)N1CCC[C@H]1C(=O)OC)[C@@H](C)CC [CA-074-Me]	–	Neither of the broad-spectrum cysteine protease inhibitors zFA.fmk and N-Acetyl-Leu-Leu-Nle-CHO nor a more specific cathepsin B inhibitor CA-074-Me showed significant rescue of cell death	–
O=c1[nH]ccc2nc(-c3ccc(CN4CCC(c5n[nH]c(-c6ccccn6)n5)CC4)cc3)c(-c3ccccc3)cc12 [II-3, 3-phenyl-2-(4-((4-(5-(pyridin-2-yl)-1H-1,2,4-triazol-3-yl)piperidin-1-yl)methyl)phenyl)-1,6-naphthyridin-5(6H)-one]	induce increased autophagic vacuole accumulation	–	–
Cc1c(CN2CCN(C(=O)[C@@H](C)O)CC2)sc2c(N3CCOCC3)nc(-c3cnc(N)nc3)nc12 [III-3]	induce increased autophagic vacuole accumulation	–	–
CC(C)CC(=O)N[C@H](C(=O)N[C@H](C(=O)N[C@@H](CC(C)C)[C@@H](O)CC(=O)N[C@@H](C)C(=O)N[C@@H](CC(C)C)[C@@H](O)CC(=O)O)C(C)C)C(C)C [pepstatin A] (Isovaleryl-VV[Sta]A[Sta]-OH)	–	–	cell death in combination with II-4 (Akti) (PC3 cells [2]): promoted cell death together with Akti-112
CO[C@H]1C[C@@H]2CC[C@@H](C)[C@@](O)(O2)C(=O)C(=O)N2CCCC[C@H]2C(=O)O[C@H]([C@H](C)C[C@@H]2CC[C@@H](O)[C@H](OC)C2)CC(=O)[C@H](C)/C=C(\C)[C@@H](O)[C@@H](OC)C(=O)[C@H](C)C[C@H](C)/C=C/C=C/C=C/1C [Rapamycin, rapamycin]	induce increased autophagic vacuole accumulation	–	–
CCNC(=O)Nc1ccc(-c2nc3c(c(N4CCOCC4)n2)CCN(c2ncccn2)C3)cc1 [III-2, 1-ethyl-3-(4-(4-morpholino-7-(pyrimidin-2-yl)-5,6,7,8-tetrahydropyrido[3,4-d]pyrimidin-2-yl)phenyl)urea]	induce increased autophagic vacuole accumulation	–	–
CCCC[C@@H](C=O)NC(=O)[C@H](CC(C)C)NC(=O)[C@H](CC(C)C)NC(C)=O [N-Acetyl-Leu-Leu-Nle-CHO] (Ac-Leu-Leu-[Nle]-aldehyde)	–	Neither of the broad-spectrum cysteine protease inhibitors zFA.fmk and N-Acetyl-Leu-Leu-Nle-CHO nor a more specific cathepsin B inhibitor CA-074-Me showed significant rescue of cell death	–
NC(=O)[C@@H]1CCCCN1CCCN(C(=O)c1cccs1)c1nc(-c2cc(-c3ccccc3)no2)cs1 [IV-1, (S)-1-(3-(N-(4-(3-phenylisoxazol-5-yl)thiazol-2-yl)thiophene-2-carboxamido)propyl)piperidine-2-carboxamide]	–	–	autophagy gene expression (PC3 cells [5]): induce autophagy gene expression
COC(=O)C[C@H](NC(=O)[C@H](C)NC(=O)[C@@H](NC(=O)OCc1ccccc1)C(C)C)C(=O)CF [zVAD.fmk] (Cbz-Val-Ala-Asp(OMe)-CH2F)	–	partially rescued cell death at all concentrations tested	–
Cc1nc(-c2ccc(CN3CCC(n4c(=O)[nH]c5ccccc54)CC3)cc2)c(-c2ccccc2)nc1O [II-1, 1-(1-(4-(5-hydroxy-6-methyl-3-phenylpyrazin-2-yl)benzyl)piperidin-4-yl)-1H-benzo[d]imidazol-2(3H)-one]	–	–	autophagy gene expression (PC3 cells [5]): induce autophagy gene expression
CC(=O)N[C@@H](CS)C(=O)O [NAC, N-acetylcysteine]	–	NAC rescued cell death induced by Akti+CQ; also recorded: rescued cell viability in the presence of II-4 and CQ	effect of NAC on Akti-induced autophagy markers (PC3 cells [3]; 5 mM NAC): counteracted all these effects induced by Akti with or without CQ; also recorded: reduced Akti-induced LC3 and GFP-LC3 lipidation, p62 degradation, and GFP-LC3 puncta formation; effect of NAC on Akti's inhibition of pAkt or pS6 (Akt): did not affect Akti's ability to inhibit pAkt or pS6; effect of NAC on MitoSOX Red signal (PC3 cells [4]; 5 mM NAC): reduced MitoSOX Red signal induced by the various treatments
CCNC(=O)Nc1ccc(-c2nc3c(c(N4CCCOCC4)n2)CN(C(=O)OCc2ccccc2)C3)cc1 [III-1, benzyl 2-(4-(3-ethylureido)phenyl)-4-(1,4-oxazepan-4-yl)-5H-pyrrolo[3,4-d]pyrimidine-6(7H)-carboxylate]	induce increased autophagic vacuole accumulation	–	–
